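Briefly, cells in 96-well plates were exposed to five compound concentrations for 48 h, and endpoints were estimated by linear interpolation. GI50: concentration for 50% inhibition of growth. TGI: total growth inhibition.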
Experiments:
Assay in all cases: NCI anticancer screen, dose series, 48 h
HCT-15 colon = tested on: HCT-15 colon
SK-MEL-5 melanoma = tested on: SK-MEL-5 melanoma
A498 renal = tested on: A498 renal
NCI-H23 lung = tested on: NCI-H23 lung
RPMI-8226 leukemia = tested on: RPMI-8226 leukemia
EKVX NSCLC = tested on: EKVX NSCLC
U251 CNS = tested on: U251 CNS
MCF7 breast = tested on: MCF7 breast
HCC-2998 colon = tested on: HCC-2998 colon

Compound	TGI (HCT-15 colon) [µM]	TGI (SK-MEL-5 melanoma) [µM]	TGI (A498 renal) [µM]	TGI (NCI-H23 lung) [µM]	TGI (RPMI-8226 leukemia) [µM]	TGI (EKVX NSCLC) [µM]	TGI (U251 CNS) [µM]	TGI (MCF7 breast) [µM]	TGI (HCC-2998 colon) [µM]	GI50 (HCT-15 colon) [µM]	GI50 (SK-MEL-5 melanoma) [µM]	GI50 (NCI-H23 lung) [µM]	GI50 (EKVX NSCLC) [µM]	GI50 (U251 CNS) [µM]	GI50 (HCC-2998 colon) [µM]
OC1(c2ccccc2)CC2CCC(C1)N2CCCC(O)(c1ccccc1)c1ccccc1 (stereo not given)	27.3	10.2	29.1	25.7	6.4	38.3	28.7	33.3	6.25						
CN(C(=O)[C@H](NC(=O)OCc1ccccc1)c1ccccc1)C1CCCCC1N1CCCC1 (stereo not given in full)	> 100	41.2	> 100	> 100	> 100	> 100	> 100	> 100							
C=C1C(=O)OC2C1CCC(=C)C1CC(O)C(=C)C12 (stereo not given)	25.1	30.6	38	34	23	20.3	50.3	25.5	27.9						
C=CCn1c(-c2cc(C(C)(C)C)c(O)c(C(C)(C)C)c2)cs/c1=N\C(P(=O)(O)O)P(=O)(O)O	> 100		> 100	> 100	> 100	> 100	> 100	> 100	> 100						
COc1ccccc1N1CCN(CCCCNC(=O)c2ccc([N+](=O)[O-])o2)CC1	17.5	18.7	22.8	15.9	> 68.4	34.2	24.6	22.2	5.71						
CC12NC(=C(C#N)C#N)C(C#N)=C3NC(N)=C(C#N)C(=C31)Oc1ccccc12 (stereo not given)	> 100	> 22.9	> 100	> 100	> 100	> 100	> 100	> 100	> 100						
Cc1sc2c(c1C)C(=O)c1cccn1-2	> 100	> 100	> 100		> 100	> 100	> 100	> 100	> 100						
COc1cc(C2CC(C)(N3CCOCC3)Oc3cc4c(cc32)OCO4)cc(OC)c1OC (stereo not given)	> 100	1.54		> 100	0.151	> 100	> 100	> 100	2.11						
O=C1c2ccccc2N=C(c2cc3c(cc2Cl)Sc2nccn2S3(=O)=O)OS(=O)(=O)N1c1ccccc1	50.8		> 100	66.2	46.4	> 100	> 100	81.5	36						
c1ccc(CN2CCC(=NN3CCCCC3)CC2)cc1	> 100	> 100		> 100	66.3	> 100	> 100	> 100	> 100						
O=C(N/N=C(/COc1ccccc1)N=Cc1ccncc1)c1ccncc1	> 100		> 100	> 100	> 100	> 100	> 100	> 100	> 100						
C=C1CC[C@@]2(C)[C@@H]([C@@H]1C)[C@H]1CC[C@@H]3[C@@]4(C)CC[C@H](O)C(C)(C)[C@@H]4CC[C@@]3(C)[C@]1(C)C[C@@H]2O	11.2	> 50.3	4.35	5.64	> 100	7.22		9.23							
O=C(Nc1ccccc1)c1cc2ccccc2c(N=Nc2cccc([N+](=O)[O-])c2)c1O	> 100	> 100	> 100	> 100		> 100	> 100	> 100	> 100						
O=C([CH-]C(=O)c1ccccc1)c1ccccc1.[C-]#[O+].[C-]#[O+].[Ir]	> 100	> 100		> 100		> 100	> 100		> 100	42.6	39.3	52.8	> 100	36.4	> 100
CC(NC(=O)Cc1ccc(OP(=O)(OCc2ccc([N+](=O)[O-])o2)N(C)CCCCCl)cc1)c1ccc(OCC2CCCCC2)c(C(N)=O)c1 (stereo not given)	6.44	2.97	7.39	5.12	2.44		5.28	6.75	2.98						
Cn1c(N/N=C/c2ccccc2)nc(-c2ccc3c(c2)OCO3)c(C#N)c1=O	> 100	> 100	> 100	> 100	> 100	> 100	> 100	> 100							
COC(CNC(=O)CNC(=O)c1ccc(C(F)(F)F)cc1)OC	> 100	> 100		> 100	> 100	> 100	> 100	> 100							
COc1ccc(C=Nc2ccc(-c3nc4ccccc4s3)cc2)cc1OC	> 100	30.8	46.2	90.6	> 100	> 100	> 100		40						
CN(C)CCCNC(=O)N/N=C/c1ccc(O)cc1	> 100	> 100	> 100	> 100			> 100	> 100	> 100						
C/C=C/CC(C(=O)OCC)(N(C)C(=O)OC(C)(C)C)S(=O)(=O)c1ccc(C)cc1 (stereo not given)	> 100	> 100	> 100	> 100	> 100	> 100	> 100	> 100							
Nc1nc(Cl)cc(NCC2(CO)CCCCC2)n1	> 100	> 100	> 100	> 100	> 100	> 100	> 100	> 100							
Cc1ccc(Nc2c3c(c(C#N)c4nc5ccccc5n24)CCCC3)cc1	82.4	23.4		> 100		> 100	> 100	> 100	94.9						
COc1ccc(-c2nc(-c3ccc(OC)cc3)n(-c3ccccc3)n2)cc1	> 100	> 100	> 100	> 100		> 100	> 100	> 100							
CCO/C(O)=C(/C(=N)N1CCOCC1)C(=O)Nc1cccc(C(F)(F)F)c1	> 100		> 100	> 100	> 100	> 100	> 100	> 100	> 100						
